Measurements: US10070648B2, “Photodynamic insecticides” (ROSALIND FRANKLIN UNIVERSITY OF MEDICINE AND SCIENCE, priority 2016, dated 2018)
Where two headings read alike, the source gives them in different places.

Experiments:
Aedes mosquito larvae = test: PDI assay of light-activated larvicidal activity (larva mobility); type: in vivo, A. aegypti and A. albopictus; conditions: for EC50: 2nd instar larvae, estimated from concentration vs. larvicidal activity curve, 16 hours PS exposure in dark, then white light, read-out: EC50 for PDT-mediated 2nd-instar larvicidal activities; for 2nd instar larvicidal activity (larva immobilization, % of dark control) compared with positive controls RB and CY: 1/1000 dilution of stock, white light up to 7 hours
Text: 2nd to 4th instar larvae of A. aegypti and A. albopictus (or Aedes mosquitoes in brief) were used in the experiments, as they are known vectors of Zika fever and other viral diseases. Colonies of both species were reared to provide the larvae of all instars under the approved conditions of a humidified “warm room” (˜28 C, ˜80% relative humidity).
The PDI assay to determine the larvicidal activities of the PS in Table 1 was based on procedures developed for mammalian and protozoa cells with modifications for mosquito larvae. Briefly, each PS was tested in 3-4 concentrations in 10-fold serial dilutions, starting with a 1/100 dilution of the stock solution (see Table 1 for the PS stock concentrations) as the highest. The solvent (DMSO) at these PS concentrations was ≤1%, which was pre-tested alone and shown to have no larvicidal activity. Larvae were PS-exposed (and not exposed as a control) in groups of 20 per 5 mL of water per well of a 6-well plate, in duplicate. All plates were foil-wrapped for overnight incubation under dark conditions in the “warm room.” After 16 hours of PS exposure, one of the duplicate 6-well plates was un-wrapped and the lid removed for exposure from the top with white light from a fluorescent tube-containing box (1-2 J/cm^2). The remaining 6-well plate of the duplicate was exposed under exactly the same conditions, but remained foil-wrapped as the dark control. Larvae were checked for mobility and readings recorded hourly for up to 7 hours. […] Each condition was repeated 4-5 times in independent experiments.

[1] = test system: Culex pipiens quinquefasciatus 4th instar larvae; test: Uptake and photo-inactivation in mosquito larvae kept in dye-containing water; type: in vivo
Description: Panel [A]: Culex pipiens quinquefasciatus 4th instar larvae exposed to rose Bengal (10 μg/mL) (˜20 larvae/5 mL water/well in 6-well plate) in dark for ˜24 hours followed by exposure to white light for ˜6 hrs at ˜2500 lux. Panels [B] and [C]: Phlebotomus duboscqi female (B) and male (C) adult flies (˜20 flies/screened paper cup) fed with 5% sucrose solution and 500 μL of 5 mg/mL rose bengal in a cotton ball for ˜20 hrs in the dark followed by exposure to ˜2500 lux of white light for 3 hrs. Duplicate samples were prepared and kept in the dark as controls. Rose bengal was taken up by the mosquito larvae and sand flies of both sexes.
Culex pipiens quinquefasciatus 4th instar larvae were exposed to rose Bengal or cyanosine (10 μg/mL) (˜20 larvae/5 mL water/well in 6-well plate) in the dark for ˜24 hours followed by exposure to white light for ˜6 hrs at ˜2500 lux; Phlebotomus duboscqi female (FIG. 1, panel B) and male (FIG. 1, panel C) adult flies (˜20 flies/screened paper cup) fed with 5% sucrose solution and 500 μL of 5 mg/ml rose bengal in a cotton ball for ˜20 hrs in the dark followed by exposure to ˜2500 lux of white light for 3 hrs. Duplicate samples were prepared and kept in the dark as controls.
The susceptibility of PS-sensitized insects to white light illumination varied with the species and the PSs used. […]

[2] = test system: Aedes albopictus clone C6/36 (ATCC CRL-1660); test: Uptake of PS by mosquito cells in vitro and photo-inactivation; conditions: for state of sensitized cells after light exposure: white light, 4 hrs
Description: (§1) The insect cells were exposed to both dyes overnight and illuminated with white light under conditions similar to those described for mammalian and Leishmania cells. Images were captured first under differential interference (DIF) [A] and then under the filter sets for DAPI and Texas red [B]. [C] Chemical structure of cyanosione and rose Bengal.
as §1, with “Uptake of PS was assessed in insect cells, specifically Aedes albopictus clone C6/36 (ATCC CRL-1660). The” for “The”, “cells. […]” for “cells.”

[3] = 1/10000 dilution of the stocks, light-activated

Row | Molecule | viability of 2nd to 4th instar larvae (Aedes mosquito larvae; [3]) | EC50 (Aedes mosquito larvae; Aedes) | phototoxicity to mosquito larvae ([1]; 10 μg/mL, dark ~24 hours, then white light ~6 hrs at ~2500 lux) | difference of sensitized larvae between dark and light conditions ([1]; motility as viability readout) | state of sensitized cells kept in the dark ([2]; dark) | state of sensitized cells after light exposure [2] | state of sensitized cells after light exposure ([2]; listed as RB) | 2nd instar larvicidal activity (larva immobilization, % of dark control) compared with positive controls RB and CY (Aedes mosquito larvae) | effect on the other instars (3rd, 4th) (Aedes mosquito larvae; [3]) | EC50 (Aedes mosquito larvae)
1 | O=C([O-])c1c(Cl)c(Cl)c(Cl)c(Cl)c1-c1c2cc(I)c(=O)c(I)c-2oc2c(I)c([O-])c(I)cc12.[Na+].[Na+] [Rose Bengal] | reduced the viability of all instars to a variable extent | 250 nM | especially evident | significant | remained adherent and intact | cellular disintegration | became disintegrated | – | – | –
2 | Meso- Tetraphenylpor- phine disulphonic acid dihydrochoride [TPPS2] | – | – | – | – | – | – | – | most similar to RB | unscathed | –
3 | Meso-tetra(4- n,n,n- trimethylanili- nium) porphine tetrachloride [TMAP] | – | – | – | – | – | – | – | most similar to RB | unscathed | 100 nM
